Measurements published in ChEMBL document CHEMBL4414677, “Albanitriles A-G: Antiprotozoal Polyacetylene Nitriles from a Mycale Marine Sponge” (J Nat Prod, 2019).
Values after ≈ are worked out from the molar mass of the structure shown.

Legend:
[1] = Cytotoxicity against mouse NS1 cells assessed as cell growth inhibition measured after 96 hrs by resazurin assay; assay type: cell-based; settings: read-out: MIC
Escherichia coli = experiment: Antibacterial activity against Escherichia coli ATCC 25922 assessed as bacterial growth inhibition measured after 48 hrs by resazurin assay; assay type: functional; settings: ATCC 25922, 48 h
[2] = Cytotoxicity against human NFF cells assessed as cell growth inhibition measured after 96 hrs by resazurin assay; assay type: cell-based; settings: read-out: MIC
Tritrichomonas foetus = experiment: Antiprotozoal activity against Tritrichomonas foetus KV1 assessed as protozoal growth inhibition measured after 72 hrs under anaerobic conditions; assay type: functional; settings: KV1, 72 h
Candida albicans = experiment: Antifungal activity against Candida albicans ATCC 10231 assessed as fungal growth inhibition measured after 48 hrs by bromocresol green dye based assay; assay type: functional
Giardia intestinalis = experiment: Antiprotozoal activity against Giardia duodenalis 713 assessed as protozoal growth inhibition measured after 96 hrs under anaerobic conditions; assay type: functional; settings: Giardia duodenalis, 713, 96 h
Bacillus spizizenii = experiment: Antibacterial activity against Bacillus subtilis ATCC 6633 assessed as bacterial growth inhibition measured after 48 hrs by resazurin assay; assay type: functional; settings: ATCC 6633, 48 h

Compound	MCC at 96 h [1]	MIC (Escherichia coli)	MCC at 96 h [2]	MIC (Tritrichomonas foetus)	MIC (Candida albicans; ATCC 10231, 48 h)	MIC (Giardia intestinalis)	MIC (Bacillus spizizenii)	MIC (Candida albicans)
N#CCCCCC#CC#CC#CCCCCCC=O	100 µM	> 400 µM	50 µM	200 µM (≈ 50.7 µg/mL)	> 400 µM	400 µM (≈ 101 µg/mL)	400 µM (≈ 101 µg/mL)	
Cc1ncc([N+](=O)[O-])n1CCO [METRONIDAZOLE]				1.2 µM (≈ 0.205 µg/mL)		2.9 µM (≈ 0.496 µg/mL)		
N#CCCCCC#CC#CC#CCCCCCCC#N	50 µM	> 400 µM	100 µM	190 µM (≈ 50.2 µg/mL)	> 400 µM	12 µM (≈ 3.17 µg/mL)	400 µM (≈ 106 µg/mL)	
NYSTATIN								1.7 µM
CSC[S@+]([O-])C[C@H](CO)NC(=O)/C=C/c1c(C)[nH]c(=O)[nH]c1=O	0.55 µM		1.7 µM					
CN(C)[C@@H]1C(O)=C(C(N)=O)C(=O)[C@@]2(O)C(O)=C3C(=O)c4c(O)cccc4[C@@](C)(O)[C@H]3C[C@@H]12 [TETRACYCLINE]		14 µM (≈ 6.22 µg/mL)					0.9 µM (≈ 0.4 µg/mL)	
N#CCCCCC#CC#CC#CCCCCCC(O)C#N (stereo not given)	180 µM	> 360 µM	90 µM	> 360 µM	> 360 µM	90 µM (≈ 25.2 µg/mL)	90 µM (≈ 25.2 µg/mL)	
N#CCCCCC#CC#CC#CCCCCCC#N	50 µM	> 400 µM	100 µM	200 µM (≈ 50.1 µg/mL)	> 400 µM	25 µM (≈ 6.26 µg/mL)	> 400 µM	
